Measured values reported in patent US12404283B2, “c-MYC mRNA translation modulators and uses thereof in the treatment of cancer” (Anima Biotech Inc., priority 2022, dated 2025).
Structures can show the parent of a compound that is named as a salt.

Test system: c-Myc
Assay: c-Myc immunofluorescence assay
Format: cell-based, human
Conditions: A549 cells, 24 hours treatment, anti-c-Myc immunofluorescence
Summary of the method: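 A549 cells grown 48 h, exposed 24 h to rising compound concentrations, then fixed, permeabilised and stained for c-Myc plus DAPI. Nuclear-segmented c-Myc fluorescence quantified by high-content imaging at 20×; EC50 from logistic dose–response fits.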

Row | SMILES | Myc Efficacy (−LogEC50)
1 | CN[C@H]1C[C@H](NC(=O)c2ccc3c(c2)sc2nc(-c4cccc(C)c4)cn23)C1 [compound 158, N-((1r,3r)-3-(methylamino)cyclobutyl)-2-(m-tolyl)benzo[d]imidazo[2,1-b]thiazole-7-carboxamide formate] | ++ (++ ≥5 and <6)
2 | Cc1cccc(-c2cn3c(n2)sc2cc(C(=O)NCCC(=O)N4CCCC4)ccc23)c1 [compound 159, N-(3-oxo-3-(pyrrolidin-1-yl)propyl)-2-(m-tolyl)benzo[d]imidazo[2,1-b]thiazole-7-carboxamide] | + (+ >3 and <5)
3 | CCN(CC)CCCNC(=O)c1ccc2c(c1)sc1nc(-c3ccc(C#N)cc3)cn12 [compound 160, 2-(4-cyanophenyl)-N-(3-(diethylamino)propyl)benzo [d]imidazo[2,1-b]thiazole-7-carboxamide] | + (+ >3 and <5)
4 | CCN(CC)CCCNC(=O)c1ccc2c(c1)sc1nc(-c3ccncc3)cn12 [compound 161, N-(3-(diethylamino)propyl)-2-(pyridin-4-yl)benzo[d]imidazo[2,1-b]thiazole-7-carboxamide] | +++ (+++ ≥6)
5 | CCN(CC)CCCNC(=O)c1ccc2c(c1)sc1nc(N3CCOCC3)cn12 [compound 162, N-(3-(diethylamino)propyl)-2-morpholinobenzo[d]imidazo [2,1-b]thiazole-7-carboxamide] | − (− ≤3)
6 | CCN(CC)CCCNC(=O)c1ccc2c(c1)sc1nc(-c3ccc(CN)cc3)cn12 [compound 163, 2-(4-(aminomethyl)phenyl)-N-(3-(diethylamino)propyl)benzo [d]imidazo[2,1-b]thiazole-7-carboxamide] | +++ (+++ ≥6)
7 | CCN(CC)CCCNC(=O)c1ccc2c(c1)sc1nc(-c3ccc(NC)cc3)cn12 [compound 164, N-(3-(diethylamino)propyl)-2-(4-(methylamino)phenyl)benzo [d]imidazo[2,1-b]thiazole-7-carboxamide] | +++ (+++ ≥6)
8 | CCN(CC)CCCNC(=O)c1ccc2c(c1)sc1nc(-c3cncc(C)c3)cn12 [compound 165, N-(3-(diethylamino)propyl)-2-(5-methylpyridin-3-yl)benzo[d]imidazo[2,1-b]thiazole-7-carboxamide] | + (+ >3 and <5)
9 | CCN(CC)CCCNC(=O)c1ccc2c(c1)sc1nc(-c3ccc(C(=O)NC)cc3F)cn12 [compound 166, N-(3-(diethylamino)propyl)-2-(2-fluoro-4-(methylcarbamoyl)phenyl) benzo[d]imidazo[2,1-b]thiazole-7-carboxamide] | +++ (+++ ≥6)
10 | CCN(CC)CCCNC(=O)c1ccc2c(c1)sc1nc(-c3cccc(C(=O)NC)c3)cn12 [compound 167, N-(3-(diethylamino)propyl)-2-(3-(methylcarbamoyl)phenyl) benzo[d]imidazo[2,1-b]thiazole-7-carboxamide] | + (+ >3 and <5)
11 | Cc1cccc(-c2cn3c(n2)sc2cc(NC(=O)C4CCNCC4)ccc23)c1 [compound 168, N-(2-(m-tolyl)benzo[d]imidazo[2,1-b]thiazol-7-yl)piperidine-4-carboxamide] | ++ (++ ≥5 and <6)
12 | CCN(CC)CCCNC(=O)c1ccc2c(c1)sc1nc(-c3cccc(C(C)C)c3)cn12 [compound 169, N-(3-(diethylamino)propyl)-2-(3-isopropylphenyl)benzo[d] imidazo[2,1-b]thiazole-7-carboxamide] | ++ (++ ≥5 and <6)
13 | CCN(CC)CCCNC(=O)c1ccc2c(c1)sc1nc(-c3cccc(N4CCOCC4)c3)cn12 [compound 170, N-(3-(diethylamino)propyl)-2-(3-morpholinophenyl)benzo[d] imidazo[2,1-b]thiazole-7-carboxamide] | ++ (++ ≥5 and <6)
14 | CCN(CC)CCCNC(=O)c1ccc2c(c1)sc1nc(-c3cccc(N4CCCC4)c3)cn12 [compound 171, N-(3-(diethylamino)propyl)-2-(3-(pyrrolidin-1-yl)phenyl)benzo[d]imidazo [2,1-b]thiazole-7-carboxamide] | ++ (++ ≥5 and <6)
15 | CCN(CC)CCCNC(=O)c1ccc2c(c1)sc1nc(-c3ccc(C(=O)O)cc3)cn12 [compound 172, 4-(7-((3-(diethylamino)propyl)carbamoyl)benzo[d]imidazo [2,1-b]thiazol-2-yl)benzoic acid] | − (− ≤3)
16 | CCN(CC)CCCNC(=O)c1ccc2c(c1)sc1nc(-c3ccc(C4COC4)cc3)cn12 [compound 173, N-(3-(diethylamino)propyl)-2-(4-(oxetan-3-yl)phenyl)benzo[d]imidazo [2,1-b]thiazole-7-carboxamide] | ++ (++ ≥5 and <6)
17 | CNC(=O)c1ccc(-c2cn3c(n2)sc2cc(C(=O)NCCCN4CCCCC4)ccc23)cc1 [compound 174, 2-(4-(methylcarbamoyl)phenyl)-N-(3-(piperidin-1-yl)propyl)benzo[d]imidazo [2,1-b]thiazole-7-carboxamide] | +++ (+++ ≥6)

Row | SMILES | Myc Efficacy (−LogEC50)
18 | CNC(=O)c1ccc(-c2cn3c(n2)sc2cc(C(=O)NCCCN4CCNCC4)ccc23)cc1 [compound 175, 2-(4-(methylcarbamoyl)phenyl)-N-(3-(piperazin-1-yl)propyl)benzo[d]imidazo [2,1-b]thiazole-7-carboxamide] | − (− ≤3)
19 | CNC(=O)c1ccc(-c2cn3c(n2)sc2cc(C(=O)NCC4CCN(C)C4)ccc23)cc1 (stereo not drawn) [compound 176, 2-(4-(methylcarbamoyl)phenyl)-N-((1-methylpyrrolidin-3-yl)methyl)benzo[d]imidazo [2,1-b]thiazole-7-carboxamide] | − (− ≤3)
20 | CCN(CCCNC(=O)c1ccc2c(c1)sc1nc(-c3cccc(C)c3)cn12)CC(F)(F)F [compound 177, N-(3-(ethyl(2,2,2-trifluoroethyl)amino)propyl)-2-(m-tolyl)benzo[d]imidazo[2,1-b]thiazole-7-carboxamide] | + (+ >3 and <5)
21 | Cc1cccc(-c2cn3c(n2)sc2cc(C(=O)NCCCNCC(F)(F)F)ccc23)c1 [compound 178, 2-(m-tolyl)-N-(3-((2,2,2-trifluoroethyl)amino)propyl) benzo[d]imidazo[2,1-b]thiazole-7-carboxamide] | + (+ >3 and <5)
22 | CCN(CC)CCCNC(=O)c1ccc2c(c1)sc1nc(-c3ccc(N4CCCC4=O)cc3)cn12 [compound 179, N-(3-(diethylamino)propyl)-2-(4-(2-oxopyrrolidin-1-yl)phenyl)benzo[d]imidazo [2,1-b]thiazole-7-carboxamide] | + (+ >3 and <5)
23 | CCN(CC)CCCN(C)C(=O)c1ccc2c(c1)sc1nc(-c3ccc(C(=O)NC)cc3)cn12 [compound 180, N-(3-(diethylamino)propyl)-N-methyl-2-(4-(methylcarbamoyl)phenyl) benzo[d]imidazo[2,1-b]thiazole-7-carboxamide] | + (+ >3 and <5)
24 | CCN(CC)CCCN(C)C(=O)c1ccc2c(c1)sc1nc(-c3cccc(C)c3)cn12 [compound 181, N-(3-(diethylamino)propyl)-N-methyl-2-(m-tolyl)benzo[d]imidazo[2,1-b]thiazole-7-carboxamide] | ++ (++ ≥5 and <6)
25 | CNC(=O)c1ccc(-c2cn3c(n2)sc2cc(C(=O)NC[C@H]4COCCO4)ccc23)cc1 [compound 182, (S)-N-((1,4-dioxan-2-yl)methyl)-2-(4-(methylcarbamoyl)phenyl) benzo[d]imidazo[2,1-b]thiazole-7-carboxamide] | − (− ≤3)
26 | CNC(=O)c1ccc(-c2cn3c(n2)sc2cc(C(=O)NCCN4CC5(COC5)C4)ccc23)cc1 [compound 183, N-(2-(2-oxa-6-azaspiro[3.3]heptan-6-yl)ethyl)-2-(4-(methylcarbamoyl)phenyl) benzo[d]imidazo[2,1-b]thiazole-7-carboxamide] | + (+ >3 and <5)
27 | CNC(=O)c1ccc(-c2cn3c(n2)sc2cc(C(=O)NCCN4CCN(C)CC4)ccc23)cc1 [compound 184, 2-(4-(methylcarbamoyl)phenyl)-N-(2-(4-methylpiperazin-1-yl)ethyl)benzo[d]imidazo [2,1-b]thiazole-7-carboxamide] | + (+ >3 and <5)
28 | CNC(=O)c1ccc(-c2cn3c(n2)sc2cc(C(=O)NC4CCNCC4)ccc23)cc1 [compound 185, 2-(4-(methylcarbamoyl)phenyl)-N-(piperidin-4-yl)benzo[d]imidazo[2,1-b]thiazole-7-carboxamide] | ++ (++ ≥5 and <6)
29 | CNC(=O)c1ccc(-c2cn3c(n2)sc2cc(C(=O)N[C@@H](C)COC)ccc23)cc1 [compound 186, (S)-N-(1-methoxypropan-2-(methylcarbamoyl)phenyl) benzo[d]imidazo[2,1-b]thiazole-7-carboxamide] | + (+ >3 and <5)
30 | CNC(=O)c1ccc(-c2cn3c(n2)sc2cc(C(=O)NC(C)CCO)ccc23)cc1 (stereo not drawn) [compound 187, N-(4-hydroxybutan-2-yl)-2-(4-(methylcarbamoyl)phenyl) benzo[d]imidazo[2,1-b]thiazole-7-carboxamide] | − (− ≤3)
31 | CC[C@@H](CO)NC(=O)c1ccc2c(c1)sc1nc(-c3ccc(C(=O)NC)cc3)cn12 [compound 188, (S)-N-(1-hydroxybutan-2-yl)-2-(4-(methylcarbamoyl)phenyl) benzo[d]imidazo[2,1-b]thiazole-7-carboxamide] | + (+ >3 and <5)
32 | CNC(=O)c1ccc(-c2cn3c(n2)sc2cc(C(=O)NCCCOC)ccc23)cc1 [compound 189, N-(3-methoxypropyl)-2-(4-(methylcarbamoyl)phenyl) benzo[d]imidazo[2,1-b]thiazole-7-carboxamide] | − (− ≤3)
33 | CNC(=O)c1ccc(-c2cn3c(n2)sc2cc(C(=O)NC4CCN(C(=O)C5CC5)CC4)ccc23)cc1 [compound 190, N-(1-(cyclopropanecarbonyl)piperidin-4-yl)-2-(4-(methylcarbamoyl)phenyl) benzo[d]imidazo[2,1-b]thiazole-7-carboxamide] | + (+ >3 and <5)
